Results reported in patent US11229628B2, “TRPA1 and TRPV4 inhibitors and methods of using the same for organ-specific inflammation and itch” (Duke University, priority 2015, dated 2022).
Entries after “also recorded” stand apart in the source; their conditions may differ.

Columns and labels:
[1] = tested on: primary mouse epidermal keratinocytes (1° MK); assay: UVB-evoked Ca++ signaling in primary mouse keratinocytes (fluo-4 imaging); assay type: cell-based
Method: Ca++ imaging of 1° MK was conducted following routine procedures. For UVB stimulation, a customized device was built. The system comprised a printed circuit board for electrical interconnects and mechanical support and an ultraviolet light-emitting diode (UV LED).
The operating wavelength was 295 nm (FIG. 2A), with a full-width half-max of 12 nm. The optical power was 500 mW. The focal point was aimed at the plane of the upper surface of the quartz coverslip, which was used to minimize UV absorption along the optical path towards the cells (FIG. 2A-C). The optical intensity at the focal point was estimated to be 150 mW/mm^2.
Ca++ imaging of mouse 1° MK in response to chemical activation of TRPV4 was conducted after loading with 2 μM fura2-AM, following a ratiometric Ca2+ imaging protocol with 340/380 nm […] for dual excitation. Ratios of emissions were acquired at 0.5 Hz. ΔR/R0 was determined as the fraction of the increase of a given ratio over baseline ratio, divided by baseline ratio. For stimulation of cells with UVB, where fura-2 was not suitable because of the proximity of stimulation with 340/380 nm and 295 nm, 2 μM fluo4-AM was used instead. Ca++ imaging was carried out at 488 nm excitation, acquisition of emissions at 0.5 Hz, expressed as ΔF/F0. In the custom-built UV optical system, UV LEDs were capped with a ball lens, a transparent optical window in the shape of a hemispherical lens (FIG. 2B). The LED output optical beam focused at 15-20 mm from the lens, with a spot diameter of approximately 1.5˜2.0 mm (FIG. 2C). […] The thermal equilibration stage was set for physiological temperature.
To further dissect the underlying mechanisms involved, we built a customized device for specific and narrow-band UVB stimulation of primary mouse epidermal keratinocytes (1° MK) cultured in vitro (FIG. 6A-B and FIG. 2A-D). This allowed use of the Ca++ sensitive dye, fluo-4, and assessment of 1° MK's Ca++ dynamics following UVB exposure (FIG. 6B). The elicited Ca++ signal was obliterated by a UV-refracting glass coverslip, underscoring the strict dependence of the calcium response on UVB (FIG. 6C and FIG. 2A).

[2] = tested on: mouse primary keratinocytes; assay: Histamine receptor-mediated Ca++ transients in mouse primary keratinocytes (fura-2); assay type: cell-based
Method: Mouse primary keratinocytes were prepared as described in Moore et al. (Proc Natl Acad Sci USA, 2013, 110, E3225-3416). Cells were pre-treated, for 10 min with 10 μM GSK205. Then 100 μM of each, histamine, 2-Pyridylethylamine (selective activator for H1R), and 4-Methylhistamine (selective activator for H4R; both H1R and H4R known to be expressed in rodent and human keratinocytes), were applied, and fura-2 loaded keratinocytes were imaged ratiometrically, as described (Moore et al. Proc Natl Acad Sci USA, 2013, 110, E3225-3416; Li, et al. Environ Health Perspect, 2011, 119, 784-9316). Shown in blue (top curve) is the average signal of ≥75 cells. Note the robust signal for histamine, and in response to selective activator of H1R, less prominent for H4R, in keeping with previous findings on expression levels of these channels in keratinocytes.

[3] = tested on: IL-1β secretion by 1° MK; assay: IL-1β secreted by cultured keratinocytes after UVB exposure (ELISA); assay type: cell-based, mouse; settings: 5 μM GSK205
Method: Before UV irradiation, culture media was replaced with PBS. The cells were then irradiated at a dose of 50 mJ/cm^2 with UVB. 24 hours later, supernatants were assayed using IL-1β ELISA (R&D Systems, Minneapolis, Minn.).
We also tested the response of down-stream UVB effector mechanisms to GSK205 treatment in vivo.

[4] = tested on: ET1 secretion by 1° MK; assay: ET1 secretion by non-stimulated 1° MK (ELISA of supernatant); assay type: cell-based, mouse
Method: FIG. 8: Central role for KC TRPV4 in UVB-evoked Ca^++ signaling and nocifensive behavior—ET1-related supplementary findings. (A) Augmentation of GSK101-evoked Ca^++ signaling by ET1. Shown are averaged Ca^++ measurements (fura-2) in response to 5 nM GSK101. […] (B) ET1 secretion by non-stimulated 1° MK depends on TRPV4 and PLC. Shown are relative ET1 concentrations (determined by ELISA, pg/mL; vehicle-treated and WT control normalized to 100) in supernatant of non-stimulated 1° MK. Note the clear dependence on TRPV4, as indicated by a 50% reduction in Trpv4^−/− 1° MK. […] In addition, PLC-inhibitor robustly affects ET1 secretion in WT and Trpv4^−/− 1° MK. (C) ET1 expression by UVB-exposed 1° MK depends on TRPV4 and PLC—immunocytochemistry. Shown is specific ET1 immunolabeling in 1° MK, exposed to UVB using the UVB-LEDs, as for Ca^++ imaging. Use of the UVB-LED device precluded application of a ET1 ELISA, only irradiated cells could be examined. […] (D) ET1 expression by UVB-exposed 1° MK depends on TRPV4 and PLC—quantification of immunocytochemistry.
(§1) We tested whether UVB causes ET1 upregulation in a TRPV4-dependent manner. Given the exquisite wave-length dependence of ET1 expression in 1° MKs, we resorted to the UVB-LED device as for Ca++ imaging (FIG. 6A and FIG. 2A-D). […] Consistent with its effects on UVB-evoked Ca++ transients, PLC-inhibitor U73122 also dampened ET1 expression. […] This leads to TRPV4-dependent Ca++ signaling, which in turn amplifies ET1 signaling in a paracrine/autocrine fashion.

[5] = tested on: ET1 expression in 1° MK; assay: ET1 expression by UVB-exposed 1° MK (immunocytochemistry); assay type: cell-based, mouse; settings: 295 nm UVB-LED, 24 hours
Method: 1° MK were exposed to UVB using the UV optical system (295 nm LED). 24 hours later the cells were fixed and fluorescently immunolabeled for ET1. Digital images were captured and subjected to morphometry.
Mouse keratinocytes were cultured on collagen coated quartz coverslips and then stimulated from the bottom using the previously mentioned UV optical system using the 295 nm LED. 24 hours later the cells were fixed in 4% formaldehyde in PBS for 20 minutes, permeabilized with 0.1% Triton X-100 in PBS for 10 minutes, washed, then blocked in 10% normal goat serum in PBS for 45 minutes. Coverslips were incubated overnight with primary antibody mouse anti-ET1 (1:200; Abcam), washed three times in PBS and incubated with secondary antibody for 2 hours at 25° C. Coverslips were washed three times in PBS, once with double-distilled H2O. Digital images were captured using a 40× immersion lens on the BX61 Olympus upright microscope. Morphometric analysis was conducted using ImageJ freeware with tailored regions-of-interest.
as §1

## CN(CCc1ccc(Nc2nc(-c3cccnc3)cs2)cc1)Cc1ccccc1 [GSK205]
[1]; UVB and ET1 co-exposure
  ET1-augmented UVB-evoked Ca++ signaling: greatly diminished
[1]; fluo-4 ΔF/F0, GSK205 20 μM
  UVB-evoked Ca++ signaling: very similar response to that of Trpv4−/− 1° MK; also recorded: strongly down-regulated; also recorded: significant attenuation
[2]; 10 μM GSK205 10 min pre-treatment, 100 μM histamine
  histamine-Ca++ response: eliminated completely
[2]; 10 μM GSK205, 100 μM 2-Pyridylethylamine
  Ca++ response to activation of H1R: eliminated completely
[2]; 10 μM GSK205, 100 μM 4-Methylhistamine
  Ca++ response to H4R: significantly attenuated
[3]
  UVB-induced increase in IL-1β secretion by 1° MK: completely eliminated; also recorded: prevention of increase in IL-1β secretion
[4]
  ET1 secretion by non-stimulated 1° MK: significant down-regulation
[5]
  ET1 immunoreactivity in UVB-exposed 1° MK: diminished; also recorded: significant down-regulation
